Data: PubChem BioAssay AID328 (DTP/NCI, 2004)
“And” between values parts separate entries of the source, which are not always exact repeats. Equal values may be shown once. Inconclusive results and toxic doses are left out. Non-standard residues stand in square brackets, D forms with d. Residues, ends and D or L forms follow the SMILES beside them. ξ: configuration not given here. Ac5c = NC1(C(=O)O)CCCC1; ξS = NC(CO)C(=O)O

System: BDF1 mice, P388 leukemia ip, median survival T/C
Assay: NCI In Vivo Anticancer Drug Screen. Data for tumor model P388 Leukemia (intraperitoneal) in B6D2F1 (BDF1) mice
Details: endpoint: median survival time, higher = longer survival
In short: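 Steps: implant the tumour, treat one group with compound and another with vehicle, record survival, then divide treated by control.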

[1] = dose: 25.0 mg/kg/injection, schedule: Q01DX009 (ip), vehicle: saline with Tween-80
[2] = dose: 100.0 mg/kg/injection, schedule: Q04DX003 (ip), vehicle: saline with Tween-80
[3] = dose: 200.0 mg/kg/injection, schedule: Q04DX003 (ip), vehicle: saline with Tween-80
[4] = dose: 50.0 mg/kg/injection, schedule: Q01DX009 (ip), vehicle: saline
[5] = dose: 100.0 mg/kg/injection, schedule: Q01DX009 (ip), vehicle: saline
[6] = dose: 200.0 mg/kg/injection, schedule: Q01DX009 (ip), vehicle: saline
[7] = dose: 400.0 mg/kg/injection, schedule: Q01DX009 (ip), vehicle: saline
[8] = dose: 25.0 mg/kg/injection, schedule: Q01DX009 (ip), vehicle: saline
[9] = dose: 100.0 mg/kg/injection, schedule: Q04DX003 (ip), vehicle: saline
[10] = dose: 200.0 mg/kg/injection, schedule: Q04DX003 (ip), vehicle: saline
[11] = dose: 25.0 mg/kg/injection, schedule: Q01DX009 (ip), vehicle: Klucel (hydroxypropylcellulose) (HPC)
[12] = dose: 50.0 mg/kg/injection, schedule: Q01DX009 (ip), vehicle: Klucel (hydroxypropylcellulose) (HPC)
[13] = dose: 100.0 mg/kg/injection, schedule: Q01DX009 (ip), vehicle: Klucel (hydroxypropylcellulose) (HPC)
[14] = dose: 100.0 mg/kg/injection, schedule: Q04DX003 (ip), vehicle: Klucel (hydroxypropylcellulose) (HPC)
[15] = dose: 100.0 mg/kg/injection, schedule: Q01DX001 (ip), vehicle: saline with Tween-80
[16] = dose: 200.0 mg/kg/injection, schedule: Q01DX001 (ip), vehicle: saline with Tween-80
[17] = dose: 100.0 mg/kg/injection, schedule: Q01DX009 (ip), vehicle: saline with Tween-80
[18] = dose: 200.0 mg/kg/injection, schedule: Q01DX009 (ip), vehicle: saline with Tween-80
[19] = dose: 50.0 mg/kg/injection, schedule: Q01DX009 (ip), vehicle: saline with Tween-80
[20] = dose: 50.0 mg/kg/injection, schedule: Q04DX003 (ip), vehicle: saline with Tween-80

## CCOc1nc(S(=O)(=O)CC)ncc1C
[1]
  T/C: 92 % of control
dose: 75.0 mg/kg/injection, schedule: Q01DX009 (ip), vehicle: saline with Tween-80
  T/C: 90 % of control
[2]
  T/C: 105 % of control
dose: 150.0 mg/kg/injection, schedule: Q01DX009 (ip), vehicle: saline with Tween-80
  T/C: 106 % of control
[3]
  T/C: 96 % of control
dose: 400.0 mg/kg/injection, schedule: Q04DX003 (ip), vehicle: saline with Tween-80
  T/C: 96 % of control

## CCOC(=O)C(NC=O)C(=O)OCC
[4]
  T/C: 105 % of control
[5]
  T/C: 94 % of control
[6]
  T/C: 93 % of control
[7]
  T/C: 93 % of control

## CC(=O)Nc1ccc(C(=O)O)c([N+](=O)[O-])c1
[8]
  T/C: 86 % of control
[4]
  T/C: 92 % of control and 106 % of control
[5]
  T/C: 91 % of control and 100 % of control
[9]
  T/C: 98 % of control
[6]
  T/C: 106 % of control
[10]
  T/C: 108 % of control
[7]
  T/C: 101 % of control
dose: 400.0 mg/kg/injection, schedule: Q04DX003 (ip), vehicle: saline
  T/C: 96 % of control

## CCCCCCOP(=O)(CCCCCC)OCCCCCC
[11]
  T/C: 108 % of control
dose: 25.0 mg/kg/injection, schedule: Q04DX003 (ip), vehicle: Klucel (hydroxypropylcellulose) (HPC)
  T/C: 100 % of control
[12]
  T/C: 104 % of control
dose: 50.0 mg/kg/injection, schedule: Q04DX003 (ip), vehicle: Klucel (hydroxypropylcellulose) (HPC)
  T/C: 95 % of control
[13]
  T/C: 113 % of control
[14]
  T/C: 100 % of control

## CCCCCCCC(=O)NN
dose: 3.12 mg/kg/injection, schedule: Q01DX009 (ip), vehicle: other
  T/C: 96 % of control
dose: 6.25 mg/kg/injection, schedule: Q01DX009 (ip), vehicle: other
  T/C: 98 % of control
dose: 12.5 mg/kg/injection, schedule: Q01DX009 (ip), vehicle: other
  T/C: 99 % of control
dose: 25.0 mg/kg/injection, schedule: Q01DX009 (ip), vehicle: other
  T/C: 117 % of control
dose: 50.0 mg/kg/injection, schedule: Q01DX009 (ip), vehicle: other
  T/C: 117 % of control
dose: 50.0 mg/kg/injection, schedule: Q04DX003 (ip), vehicle: water
  T/C: 91 % of control
dose: 100.0 mg/kg/injection, schedule: Q01DX009 (ip), vehicle: other
  T/C: 92 % of control
dose: 100.0 mg/kg/injection, schedule: Q04DX003 (ip), vehicle: water
  T/C: 124 % of control
dose: 200.0 mg/kg/injection, schedule: Q01DX009 (ip), vehicle: other
  T/C: 97 % of control

## COc1c2c([n+](C)c3c(OC)cccc13)OC(C(C)C)C2 (stereo unspecified)
dose: 0.03 mg/kg/injection, schedule: Q01DX009 (ip), vehicle: saline
  T/C: 109 % of control
dose: 0.06 mg/kg/injection, schedule: Q01DX009 (ip), vehicle: saline
  T/C: 104 % of control
dose: 0.12 mg/kg/injection, schedule: Q01DX009 (ip), vehicle: saline
  T/C: 109 % of control
dose: 0.18 mg/kg/injection, schedule: Q04DX003 (ip), vehicle: saline
  T/C: 100 % of control
dose: 0.25 mg/kg/injection, schedule: Q01DX009 (ip), vehicle: Klucel (hydroxypropylcellulose) (HPC)
  T/C: 104 % of control
dose: 0.25 mg/kg/injection, schedule: Q01DX009 (ip), vehicle: saline
  T/C: 104 % of control and 120 % of control
dose: 0.37 mg/kg/injection, schedule: Q04DX003 (ip), vehicle: saline
  T/C: 118 % of control
dose: 0.5 mg/kg/injection, schedule: Q01DX009 (ip), vehicle: Klucel (hydroxypropylcellulose) (HPC)
  T/C: 104 % of control
dose: 0.5 mg/kg/injection, schedule: Q01DX009 (ip), vehicle: saline
  T/C: 112 % of control
dose: 0.75 mg/kg/injection, schedule: Q04DX003 (ip), vehicle: saline
  T/C: 104 % of control
dose: 1.0 mg/kg/injection, schedule: Q01DX009 (ip), vehicle: Klucel (hydroxypropylcellulose) (HPC)
  T/C: 118 % of control
dose: 1.1 mg/kg/injection, schedule: Q04DX003 (ip), vehicle: saline
  T/C: 90 % of control
dose: 1.7 mg/kg/injection, schedule: Q04DX003 (ip), vehicle: saline
  T/C: 100 % of control
dose: 2.5 mg/kg/injection, schedule: Q04DX003 (ip), vehicle: saline
  T/C: 90 % of control
dose: 3.6 mg/kg/injection, schedule: Q04DX003 (ip), vehicle: saline
  T/C: 86 % of control

## O=C(O)C1CC=CCCC1 (stereo unspecified)
[13]
  T/C: 95 % of control
[14]
  T/C: 91 % of control
dose: 200.0 mg/kg/injection, schedule: Q01DX009 (ip), vehicle: Klucel (hydroxypropylcellulose) (HPC)
  T/C: 104 % of control
dose: 200.0 mg/kg/injection, schedule: Q04DX003 (ip), vehicle: Klucel (hydroxypropylcellulose) (HPC)
  T/C: 95 % of control
dose: 400.0 mg/kg/injection, schedule: Q01DX009 (ip), vehicle: Klucel (hydroxypropylcellulose) (HPC)
  T/C: 104 % of control
dose: 400.0 mg/kg/injection, schedule: Q04DX003 (ip), vehicle: Klucel (hydroxypropylcellulose) (HPC)
  T/C: 91 % of control

## NOCc1cccc(CON)c1
dose: 12.5 mg/kg/injection, schedule: Q01DX009 (ip), vehicle: saline
  T/C: 100 % of control
[8]
  T/C: 87 % of control
[4]
  T/C: 91 % of control
dose: 50.0 mg/kg/injection, schedule: Q04DX003 (ip), vehicle: saline
  T/C: 91 % of control
[9]
  T/C: 91 % of control
[10]
  T/C: 91 % of control

## NS(=O)(=O)CS(=O)(=O)Oc1ccccc1
[15]
  T/C: 100 % of control
[16]
  T/C: 99 % of control

## Cc1ccc(O)cc1Cl
[5]
  T/C: 96 % of control
[6]
  T/C: 104 % of control
[7]
  T/C: 104 % of control

## OC(CCl)CN1CC[N+]2(CC1)CC[N+]1(CCN(CC(O)CCl)CC1)CC2 (stereo unspecified)
dose: 11.25 mg/kg/injection, schedule: Q01DX009 (ip), vehicle: water
  T/C: 114 % of control
dose: 27.5 mg/kg/injection, schedule: Q01DX009 (ip), vehicle: water
  T/C: 100 % of control
dose: 45.0 mg/kg/injection, schedule: Q01DX009 (ip), vehicle: water
  T/C: 115 % of control
dose: 200.0 mg/kg/injection, schedule: Q01DX009 (ip), vehicle: water
  T/C: 153 % of control and 159 % of control

## COC(=O)c1ccc(-c2cc(Cl)c3cc(S(=O)(=O)F)ccc3n2)cc1
[17]
  T/C: 90 % of control
[18]
  T/C: 90 % of control

## CN1C(=O)CC2(CCN(CCCC(=O)c3ccc(F)cc3)CC2)C1=O
dose: 6.25 mg/kg/injection, schedule: Q01DX009 (ip), vehicle: saline with Tween-80
  T/C: 116 % of control
dose: 12.5 mg/kg/injection, schedule: Q01DX009 (ip), vehicle: saline with Tween-80
  T/C: 107 % of control
[11]
  T/C: 118 % of control
[1]
  T/C: 124 % of control
[12]
  T/C: 120 % of control
[19]
  T/C: 97 % of control

## CC(=O)OCCN1CCN(CCCN2c3ccccc3Sc3ccc(C(F)(F)F)cc32)CC1
dose: 0.69 mg/kg/injection, schedule: Q01DX009 (ip), vehicle: saline
  T/C: 104 % of control
dose: 1.04 mg/kg/injection, schedule: Q01DX009 (ip), vehicle: saline
  T/C: 104 % of control
dose: 1.56 mg/kg/injection, schedule: Q01DX009 (ip), vehicle: saline
  T/C: 120 % of control
dose: 2.34 mg/kg/injection, schedule: Q01DX009 (ip), vehicle: saline
  T/C: 108 % of control
dose: 25.0 mg/kg/injection, schedule: Q04DX003 (ip), vehicle: saline with Tween-80
  T/C: 117 % of control
[20]
  T/C: 91 % of control

## NC(CO)C(=O)NC1(C(=O)O)CCCC1 (stereo unspecified) (H-[ξS]-[Ac5c]-OH)
[17]
  T/C: 109 % of control
[18]
  T/C: 118 % of control
dose: 400.0 mg/kg/injection, schedule: Q01DX009 (ip), vehicle: saline with Tween-80
  T/C: 95 % of control

## COC(=O)/C=C1\Sc2ccc(C(F)(F)F)cc2NC1=O
[19]
  T/C: 91 % of control
[17]
  T/C: 91 % of control
[18]
  T/C: 91 % of control

## CCCCCCCCCCCCOc1ccccc1
[20]
  T/C: 100 % of control
[2]
  T/C: 109 % of control
[3]
  T/C: 100 % of control

## CCOC(=O)C(=O)CC1=CC=CC2=NC(=O)CCN12
dose: 66.0 mg/kg/injection, schedule: Q01DX001 (ip), vehicle: saline with Tween-80
  T/C: 109 % of control
[15]
  T/C: 100 % of control
dose: 150.0 mg/kg/injection, schedule: Q01DX001 (ip), vehicle: saline with Tween-80
  T/C: 100 % of control
[16]
  T/C: 100 % of control
